Measurements taken from the NIST ThermoML archive (doi:10.1007/s10765-010-0737-5).

Assay: xn = mol fraction of the nth substance listed
Conditions: Liquid; for viscosity: 101 kPa, Capillary tube (Ostwald / Ubbelohde) method; for mass density: 101.3 kPa

CCCCCl [1-chlorobutane] + CC(C)OC(C)C
Conditions	mass density [kg/m3]	viscosity [mPa·s]
283.15 K, x1 = 0.0466	740.095	0.3698
283.15 K, x1 = 0.0991	747.139	0.3755
283.15 K, x1 = 0.1918	759.833	0.3863
283.15 K, x1 = 0.3234	778.726	0.4028
283.15 K, x1 = 0.4199	793.339	0.4153
283.15 K, x1 = 0.516	808.586	0.4283
283.15 K, x1 = 0.623	826.434	0.4433
283.15 K, x1 = 0.7154	842.63	0.4568
283.15 K, x1 = 0.8157	861.003	0.4715
283.15 K, x1 = 0.9098	879.099	0.4857
283.15 K, x1 = 0.9559	888.28	0.4927
283.15 K, x1 = 1	897.339	0.4993
288.15 K, x1 = 0.0466	734.99	0.3535
288.15 K, x1 = 0.0991	741.966	0.359
288.15 K, x1 = 0.1918	754.629	0.3689
288.15 K, x1 = 0.3234	773.471	0.3838
288.15 K, x1 = 0.4199	788.055	0.3951
288.15 K, x1 = 0.516	803.274	0.4068
288.15 K, x1 = 0.623	821.073	0.4202
288.15 K, x1 = 0.7154	837.246	0.4321
288.15 K, x1 = 0.8157	855.588	0.4453
288.15 K, x1 = 0.9098	873.635	0.4579
288.15 K, x1 = 0.9559	882.81	0.4641
288.15 K, x1 = 1	891.855	0.4701
293.15 K, x1 = 0.0466	729.792	0.3385
293.15 K, x1 = 0.0991	736.75	0.3435
293.15 K, x1 = 0.1918	749.383	0.3528
293.15 K, x1 = 0.3234	768.192	0.3662
293.15 K, x1 = 0.4199	782.731	0.3763
293.15 K, x1 = 0.516	797.924	0.3868
293.15 K, x1 = 0.623	815.68	0.3988
293.15 K, x1 = 0.7154	831.821	0.4094
293.15 K, x1 = 0.8157	850.133	0.4212
293.15 K, x1 = 0.9098	868.142	0.4323
293.15 K, x1 = 0.9559	877.303	0.4379
293.15 K, x1 = 1	886.335	0.4433
298.15 K, x1 = 0.0466	724.56	0.3222
298.15 K, x1 = 0.0991	731.492	0.3273
298.15 K, x1 = 0.1918	744.091	0.336
298.15 K, x1 = 0.3234	762.854	0.3487
298.15 K, x1 = 0.4199	777.351	0.3583
298.15 K, x1 = 0.516	792.506	0.3682
298.15 K, x1 = 0.623	810.177	0.3793
298.15 K, x1 = 0.7154	826.321	0.3893
298.15 K, x1 = 0.8157	844.587	0.4003
298.15 K, x1 = 0.9098	862.556	0.411
298.15 K, x1 = 0.9559	871.691	0.4162
298.15 K, x1 = 1	880.705	0.4214
303.15 K, x1 = 0.0466	719.283	0.3048
303.15 K, x1 = 0.0991	726.204	0.3098
303.15 K, x1 = 0.1918	738.777	0.3188
303.15 K, x1 = 0.3234	757.526	0.3318
303.15 K, x1 = 0.4199	771.984	0.3415
303.15 K, x1 = 0.516	787.119	0.3514
303.15 K, x1 = 0.623	804.761	0.3628
303.15 K, x1 = 0.7154	820.882	0.3726
303.15 K, x1 = 0.8157	839.124	0.3837
303.15 K, x1 = 0.9098	857.076	0.3944
303.15 K, x1 = 0.9559	866.204	0.3998
303.15 K, x1 = 1	875.204	0.405
308.15 K, x1 = 0.0466	713.967	0.2903
308.15 K, x1 = 0.0991	720.87	0.2953
308.15 K, x1 = 0.1918	733.414	0.3043
308.15 K, x1 = 0.3234	752.126	0.317
308.15 K, x1 = 0.4199	766.553	0.3266
308.15 K, x1 = 0.516	781.656	0.3362
308.15 K, x1 = 0.623	799.266	0.3472
308.15 K, x1 = 0.7154	815.358	0.3569
308.15 K, x1 = 0.8157	833.567	0.3677
308.15 K, x1 = 0.9098	851.486	0.3781
308.15 K, x1 = 0.9559	860.595	0.3833
308.15 K, x1 = 1	869.585	0.3885
313.15 K, x1 = 0.0466	708.604	0.2765
313.15 K, x1 = 0.0991	715.486	0.2811
313.15 K, x1 = 0.1918	728.002	0.2891
313.15 K, x1 = 0.3234	746.649	0.3005
313.15 K, x1 = 0.4199	761.063	0.309
313.15 K, x1 = 0.516	776.136	0.3175
313.15 K, x1 = 0.623	793.704	0.3274
313.15 K, x1 = 0.7154	809.769	0.3359
313.15 K, x1 = 0.8157	827.935	0.3456
313.15 K, x1 = 0.9098	845.816	0.3548
313.15 K, x1 = 0.9559	854.913	0.3594
313.15 K, x1 = 1	863.882	0.3642
